Assay [1] relates to isolated rat cardiac myocytes. Put plainly: Contractility (sarcomere shortening) in isolated rat myocytes. To be noted: for Sarcomere shortening, agent alone: agent alone (L-arginine 0.1 mM), n=3, species of myocytes not stated; for Effect on the BEC-induced increase in contractility: L-NAME 10^−4 M (0.1 mM), SMTC 10 μM; for Emax, increase in myocardial contractility (sarcomere shortening) / EC50: dose response; for EC50: log value, read-out: LogEC50, increase in myocardial contractility (sarcomere shortening) (converted). It counts as cell-based. The method, then:
(§1) Measurement of Contractility in Isolated Rat and Mouse Myocytes: Both rat and mouse myocytes were isolated by enzymatic digestion as previously described (2, 3). Myocytes were transferred to a lucite chamber on the stage of an inverted microscope (Nikon TE 200), continuously superfused with Tyrodes containing 1.0 mM Ca^2+, and stimulated at 1 Hz. Sarcomere length was recorded with an IonOptix intensified charged coupled device camera (iCCD) camera. Change in average sarcomere length was determined by fast Fourier transform of the Z-line density trace to the frequency domain (IonOptix, Milton, Mass.) as previously described (2, 3).
(§2) Data Analysis and Statistics: All data are presented as mean±SEM, with N being indicated for each experimental protocol. For dose responses, data was fitted using the software program Prism 4 (Graphpad) and Emax and EC50 calculated. Statistical analysis was performed using one-way analysis of variance with post test or unpaired Student t test where appropriate.

The target of assay [2] is T1, arginase (Rattus norvegicus, UniProt O08701).
T1 construct: Arginase activity is present in both whole rat heart (n=4) and isolated rat myocytes (n=3); from tissue; host or cells: Wistar rat heart tissue and freshly isolated rat cardiac myocytes (homogenates)
T1 sequence (O08701 23-354): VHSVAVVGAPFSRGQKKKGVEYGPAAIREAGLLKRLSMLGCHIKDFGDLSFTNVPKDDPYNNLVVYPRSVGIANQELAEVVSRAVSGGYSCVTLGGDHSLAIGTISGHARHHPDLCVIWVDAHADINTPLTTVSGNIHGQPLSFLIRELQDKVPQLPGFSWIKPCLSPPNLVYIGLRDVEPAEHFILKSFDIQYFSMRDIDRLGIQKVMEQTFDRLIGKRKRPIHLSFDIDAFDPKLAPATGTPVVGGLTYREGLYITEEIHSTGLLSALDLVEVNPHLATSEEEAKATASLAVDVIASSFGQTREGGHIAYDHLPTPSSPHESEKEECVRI
As to the kind of experiment: Arginase activity in rat heart and isolated myocyte homogenates. To be noted: isolated rat myocytes, dose-dependent. It counts as biochemical. How it is done: (§3) Arginase Activity: Rat hearts and myocytes were homogenized in lysis buffer (50 mM Tris-HCl, pH 7.5, 0.1 mM EDTA and protease inhibitor) and centrifuged for 30 min at 14,000 g at 4° C. for an arginase activity assay as described previously (20).

Assay [3] has as its system arginase. Described as above. It counts as biochemical. To be noted: whole rat heart homogenate, dose-dependent. How it is done:
as §3

The next assay relates to NO production. Put plainly: NO production (nitrite levels) in heart and isolated cardiac myocyte lysates. Type of assay: biochemical, rat. To be noted: for NO production: BEC 10 μmol/L, n=6; for Effect on myocyte NO production: isolated myocytes, exogenous L-arginine 0.1 mM alone. How it is done: NOS Activity and NO Production: NO production was evaluated by measuring nitrite levels (Calbiochem) following pre-incubation of heart and myocytes with BEC (10 μmol/L) in PBS (pH 7.4) as previously described (52).

In a further assay the test system is isolated mouse myocytes. Put plainly: Contractility (sarcomere shortening) in isolated mouse myocytes (WT, NOS1 and NOS3 deficient). Type of assay: cell-based.
Source text: Animals: Mice (8 to 10 weeks old) homozygous for targeted disruption of the NOS1 gene (NOS1^−/−, n=3), the NOS3 gene (NOS3^−/−, n=3), and wild-type control mice (WT, C57BL6J, n=3) were purchased from Jackson Laboratories. All rats (Wistar, 11 to 14 weeks old) were purchased from Harlan Laboratory. All protocols conformed to the current National Institutes of Health and American Physiological Society Guidelines for the Use and Care of Laboratory Animals.
as §1, §2

“Also recorded” adds a separate entry of the source.

As for `COC(=O)[C@@H](N)CCCNC(=N)N[N+](=O)[O-]` [L-NAME], the “Sarcomere shortening, agent alone” value in assay [1] is 0.76±0.06 fold change. For the same compound, the “Effect on the BEC-induced increase in contractility” value in assay [1] (isolated rat myocytes) was “completely abolished; also recorded: completely inhibited”.
Consider `CSC(N)=NCCC[C@H](N)C(=O)O` [SMTC], for which, in assay [1] (isolated rat myocytes), the “Effect on the BEC-induced increase in contractility” value is recorded as “abolished; also recorded: inhibited”.
Regarding `N[C@@H](CSCCB(O)O)C(=O)O` [BEC, S-(2-boronoethyl)-L-cysteine], the entries for the “Arginase activity in presence of inhibitor” value at arginase [2] and in the assay on arginase [3] were “inhabitable; also recorded: inhibited” and “inhibitable; also recorded: inhibited”, respectively. Further, the NO production with NO production (heart lysates) was determined as 16.7±1 μmol/mg protein; in the assay with NO production (isolated myocyte lysates), 11.1±2.2 μmol/mg protein. The entries for the “Emax, basal sarcomere shortening” value with isolated mouse myocytes (myocytes from NOS1 deficient mice), with isolated mouse myocytes (myocytes from NOS3 deficient mice) and with isolated mouse myocytes (myocytes from wild type mice) were 1.11±0.08, 1.81±0.17 and 1.97±0.24, respectively. The “Effect on contractility” value in the assay on isolated mouse myocytes (myocytes from NOS1 deficient mice, increasing doses) was “no effect”. Besides, the “Effect on sarcomere shortening” value in the assay with isolated mouse myocytes (myocytes from NOS3 deficient mice, increasing doses) is “dose dependently increased”; in the assay on isolated mouse myocytes (myocytes from WT mice, increasing doses), “dose dependently increased”; in assay [1] (isolated rat myocytes, increasing doses), “dose dependently increased”. The “Contractility, fold change in sarcomere shortening” value in assay [1] (isolated rat myocytes, BEC 10^−5M alone (FIG. 4a)) was 2.1±0.14 fold change. For the same compound, the “Contractility (sarcomere shortening), fold change” value in assay [1] (isolated rat myocytes, BEC alone, NOS1 inhibitor experiment (FIG. 5a)) is 2.06±0.14. The “Emax, increase in myocardial contractility (sarcomere shortening)” value in assay [1] (isolated rat myocytes) is recorded as 1.8±0.3 fold increase. Moreover, the EC50 in assay [1] (isolated rat myocytes) is 1580 nM.
As to `N=C(N)NCCC[C@H](N)C(=O)O` [L-arginine], the “Effect on myocyte NO production” value is given as “did not effect” in the assay with NO production and “no effect” in the assay with NO production (listed as L-Arginine). Moreover, in assay [1], the “Sarcomere shortening, agent alone” value is on record as 1.1±0.05 fold change.
Consider `N=C(NO)NCC[C@H](N)C(=O)O` [Nor-NOHA, N-hydroxy-nor-L-arginine], for which, in assay [1] (isolated rat myocytes, Nor-NOHA dose response (FIG. 4b legend)), the “Increase in contractility (sarcomere shortening)” value worked out at 1.9±0.45 fold increase. Moreover, in assay [1] (isolated rat myocytes), the “Emax, increase in myocardial contractility (sarcomere shortening)” value is reported as 1.98±0.23 fold increase and the EC50 is 1580 nM.

These data come from patent publication US20090298912A1, “Arginase II: A Target treatment of aging heart and heart failure” (The Johns Hopkins University, priority 2005, published 2009).
